Test results as given in US20240199623A1 (ILDONG PHARMACEUTICAL CO., LTD., priority 2020, published 2024).

The molecules below were run against human wild type-CFTR (Homo sapiens, UniProt P13569) (assay: Cell-based YFP assay). Details: CHO-K1 cells expressing human wild type-CFTR and YFP-H148Q/I152L; forskolin 20 μM = 100% activity; read-out: Cell-based YFP Assay (EC50) Concentration Range.
Sequence of human wild type-CFTR (P13569 whole entry): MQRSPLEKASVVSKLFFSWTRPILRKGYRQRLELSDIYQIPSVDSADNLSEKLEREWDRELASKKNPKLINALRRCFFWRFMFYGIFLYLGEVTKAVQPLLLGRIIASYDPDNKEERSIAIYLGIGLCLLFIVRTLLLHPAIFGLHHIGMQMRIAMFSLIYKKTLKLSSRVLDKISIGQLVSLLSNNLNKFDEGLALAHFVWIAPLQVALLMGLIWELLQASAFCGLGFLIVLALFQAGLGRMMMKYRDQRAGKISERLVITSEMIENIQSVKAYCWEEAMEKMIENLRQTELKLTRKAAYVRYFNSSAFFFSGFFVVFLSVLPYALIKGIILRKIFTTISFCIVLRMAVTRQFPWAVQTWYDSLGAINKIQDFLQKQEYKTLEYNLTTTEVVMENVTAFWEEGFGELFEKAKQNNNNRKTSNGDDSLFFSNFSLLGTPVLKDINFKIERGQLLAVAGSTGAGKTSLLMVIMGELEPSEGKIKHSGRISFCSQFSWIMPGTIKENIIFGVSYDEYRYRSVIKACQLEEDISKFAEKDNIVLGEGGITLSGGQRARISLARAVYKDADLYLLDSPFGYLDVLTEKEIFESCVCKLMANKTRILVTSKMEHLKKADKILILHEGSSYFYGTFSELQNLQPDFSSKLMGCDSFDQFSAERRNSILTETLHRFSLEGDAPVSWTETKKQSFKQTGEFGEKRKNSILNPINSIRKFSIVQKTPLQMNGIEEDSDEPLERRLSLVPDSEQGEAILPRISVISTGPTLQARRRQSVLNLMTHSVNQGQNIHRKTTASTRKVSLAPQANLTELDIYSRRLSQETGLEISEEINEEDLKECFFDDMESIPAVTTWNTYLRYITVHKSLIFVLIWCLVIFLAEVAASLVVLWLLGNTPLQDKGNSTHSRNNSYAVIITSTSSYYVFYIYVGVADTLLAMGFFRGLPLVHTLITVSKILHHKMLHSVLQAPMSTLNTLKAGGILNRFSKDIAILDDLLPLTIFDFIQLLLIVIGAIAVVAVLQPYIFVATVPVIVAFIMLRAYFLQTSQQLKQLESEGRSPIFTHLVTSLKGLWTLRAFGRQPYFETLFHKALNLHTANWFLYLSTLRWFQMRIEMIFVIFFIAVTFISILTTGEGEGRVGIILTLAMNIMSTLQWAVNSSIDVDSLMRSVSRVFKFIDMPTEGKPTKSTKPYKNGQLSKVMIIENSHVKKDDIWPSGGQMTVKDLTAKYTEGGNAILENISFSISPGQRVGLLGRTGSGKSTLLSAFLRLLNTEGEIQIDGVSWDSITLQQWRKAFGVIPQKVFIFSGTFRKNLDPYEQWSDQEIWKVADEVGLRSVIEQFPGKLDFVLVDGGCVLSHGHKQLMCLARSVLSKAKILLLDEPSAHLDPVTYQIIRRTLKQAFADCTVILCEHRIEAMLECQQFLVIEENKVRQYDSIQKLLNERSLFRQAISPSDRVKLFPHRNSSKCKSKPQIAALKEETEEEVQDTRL
Set-up: expressed in transfected cells; host or cells: CHO-K1 (Chinese hamster ovary)
Procedure: Forskolin (Tocris cat. #1099), Dimethyl sulfoxide (Sigma cat. #D4540), FLUO star Omega microplate reader (BMG Labtech, Ortenberg, Germany), MARS Data Analysis Software (BMG Labtech), GraphPad Prism 5 (GraphPad Software, Inc.) Chinese hamster ovary (CHO-K1) cells expressing human wild type-CFTR and halide sensor YFP-H148Q/I152L were constructed and grown in Dulbecco's modified Eagle's medium (DMEM) supplemented with 10% FBS, 2 mM glutamine, 100 units/ml penicillin and 100 μg/ml streptomycin. Chinese hamster ovary (CHO-K1) cells expressing human wild type-CFTR and halide sensor YFP-H148Q/I152L were seeded in 96-well microplate with 2×10^4 cells/well and incubated in 37° C., 48 hours. Then, each well was washed 3 times with PBS and 100 μL PBS was added in each well. […] YFP fluorescence signal affected by I^− ion influx through CFTR channel was measured in 37° C., FLUO star Omega microplate reader according to the following steps: • i) basal 2 seconds; • ii) 140 mM I^− solution 100 μL addition to each well; • iii) YFP fluorescence signal measurement start after 6 seconds; and • iv) following 14 seconds signal detection in every 0.4 seconds periods. […] Experiments were performed in triplicates and the data was averaged. EC50 values were calculated with MARS Data Analysis Software (BMG Labtech) and GraphPad Prism 5.
`CCOC(=O)c1ccc(NC(=O)c2cc3nccc(-c4ccc(OC)c(OC)c4)n3n2)cc1` [Compound 334, ethyl 4-(7-(3,4-dimethoxyphenyl)pyrazolo[1,5-a]pyrimidine-2-carboxamido)benzoate] was tested, and the EC50 was less than 0.2 µM.
Work on `COc1ccc(-c2ccnc3cc(C(=O)Nc4ccc(C)cn4)nn23)cc1OC` [Compound 122, 7-(3,4-dimethoxyphenyl)-N-(5-methylpyridin-2-yl)pyrazolo[1,5-a] pyrimdine-2-carboxamide] yielded an EC50 of less than 0.2 µM.
With `COc1ccc(-c2ccnc3cc(C(=O)Nc4ccc(N5CCOCC5)cn4)nn23)c(F)c1` [Compound 297, 7-(2-fluoro-4-methoxyphenyl)-N-(5-morpholinopyridin-2-yl) pyrazolo[1,5-a]pyrimidine-2-carboxamide] the EC50 was no less than 2 µM.
In the case of `COc1ccc(-c2ccnc3cc(C(=O)Nc4cccc(C(N)=O)c4)nn23)cc1OC` [Compound 54, N-(3-carbamoylphenyl)-7-(3,4-dimethoxyphenyl)pyrazolo [1,5-a]pyrimidine-2-carboxamide], the EC50 is reported as 0.2 to 2 µM.
`COc1ccc(-c2ccnc3cc(C(=O)N[C@H]4CC[C@H](C(=O)NCCCN5CCOCC5)CC4)nn23)cc1OC` [Compound 203, 7-(3,4-dimethoxyphenyl)-N-((1r,4r)-4-((3-morpholinopropyl)carbamoyl)cyclohexyl) pyrazolo[1,5-a]pyrimidine-2-carboxamide] was tested, and the EC50 was no less than 2 µM.
In the case of `COc1ccc(-c2ccnc3cc(C(=O)N4CCc5cc(C(=O)N6CCOCC6)ccc54)nn23)cc1OC` [Compound 251, (7-(3,4-dimethoxyphenyl)pyrazolo[1,5-a]pyrimidin-2-yl)(5-(morpholine-4-carbonyl)indolin-1-yl) methanone], the EC50 is reported as 0.2 to 2 µM.
Work on `COc1ccc(-c2ccnc3cc(C(=O)N4C[C@H](C)N(C(=O)c5ccccc5)[C@@H](C)C4)nn23)cc1OC` [Compound 364, ((3S,5S)-4-benzoyl-3,5-dimethylpiperazin-1-yl) (7-(3,4-dimethoxyphenyl)pyrazolo[1,5-a]pyrimidin-2-yl)methanone] yielded an EC50 of less than 0.2 µM.
For `COc1ccc(-c2ccnc3cc(C(=O)N4CCc5ccc(C(=O)N6CCN(C)CC6)cc5C4)nn23)cc1OC` [Compound 237, (7-(3,4-dimethoxyphenyl)pyrazolo[1,5-a]pyrimidin-2-yl)(7-(4-methylpiperazine-1-carbonyl)-3,4-dihyroisoquinolin-2(1H)-yl)methanone], the EC50 was no less than 2 µM.
`COc1ccc(-c2ccnc3cc(C(=O)N4CCN(c5ccccn5)CC4)nn23)cc1OC` [Compound 153, (7-(3,4-dimethoxyphenyl)pyrazolo[1,5-a]pyrimidin-2-yl)(4-(pyridin-2-yl)piperazin-1-yl)methanone] showed an EC50 of 0.2 to 2 µM.
With `COc1ccc(-c2ccnc3cc(C(=O)N[C@H]4CC[C@@H](C(=O)N5CCNCC5)CC4)nn23)cc1OC` [Compound 81, 7-(3,4-dimethoxyphenyl)-N-((1S,4S)-4-(piperazine-1-carbonyl)cyclohexyl) pyrazolo[1,5-a]pyrimidine-2-carboxamide] the EC50 was no less than 2 µM.
Molecule `COc1ccc(-c2ccnc3cc(C(=O)Nc4ccc(Br)cc4)nn23)cc1OC` [Compound 268, N-(4-bromophenyl)-7-(3,4-dimethoxyphenyl)pyrazolo [1,5-a]pyrimidine-2-carboxamide] has an EC50 of less than 0.2 µM.
For `COc1ccc(-c2ccnc3cc(C(=O)Nc4ccc(N(C)C)cn4)nn23)cc1OC` [Compound 312, 7-(3,4-dimethoxyphenyl)-N-(5-(dimethylamino)pyridin-2-yl)pyrazolo [1,5-a]pyrimidine-2-carboxamide], the EC50 was less than 0.2 µM.
For `COc1ccc(-c2ccnc3cc(C(=O)N[C@H]4CC[C@@H](C(=O)OCCCN5CCOCC5)CC4)nn23)cc1OC` [Compound 196, 3-morpholinopropyl (1s,4s)-4-(7-(3,4-dimethoxyphenyl)pyrazolo [1,5-a]pyrimidine-2-carboxamido)cyclohexane-1-carboxylate], the EC50 was 0.2 to 2 µM.
For `COCCOCOC(=O)[C@H]1CC[C@H](NC(=O)c2cc3nccc(-c4ccc(OC)c(OC)c4)n3n2)CC1` [Compound 328, (2-methoxyethoxy)methyl (1R,4R)-4-(7-(3,4-dimethoxyphenyl)pyrazolo [1,5-a]pyrimidine-2-carboxamido)cyclohexane-1-carboxylate], the EC50 was 0.2 to 2 µM.
`CCOc1ccc(NC(=O)c2cc3nccc(-c4ccc(F)c(C)c4)n3n2)cc1` [Compound 302, N-(4-ethoxyphenyl)-7-(4-fluoro-3-methylphenyl)pyrazolo [1,5-a]pyrimidine-2-carboxamide] was tested, and the EC50 was no less than 2 µM.
With `CCOc1ccc(NC(=O)c2cc3nccc(-c4cccs4)n3n2)cc1` [Compound 303, N-(4-ethoxyphenyl)-7-(thiophen-2-yl) pyrazolo[1,5-a]pyrimidine-2-carboxamide] the EC50 was no less than 2 µM.
Molecule `COc1ccc(-c2ccnc3cc(C(=O)N4CCN(C(=O)OC(C)(C)C)[C@@H](C)C4)nn23)cc1OC` [Compound 112, tert-butyl (S)-4-(7-(3,4-dimethoxyphenyl)pyrazolo[1,5-a]pyrimidine-2-carbonyl)-2-methylpiperazine-1-carboxylate] has an EC50 of less than 0.2 µM.
With `COc1ccc(-c2ccnc3cc(C(=O)Nc4ccc(C(=O)N5CCN(C)CC5)cc4C)nn23)cc1OC` [Compound 128, 7-(3,4-dimethoxyphenyl)-N-(2-methyl-4-(4-methylpiperazine-1-carbonyl)phenyl)pyrazolo [1,5-a]pyrimidine-2-carboxamide] the EC50 was less than 0.2 µM.
`CCOc1ccc(NC(=O)c2cc3nccc(-c4ccc5c(c4)CCO5)n3n2)cc1` [Compound 313, 7-(2,3-dihydrobenzofuran-5-yl)-N-(4-ethoxyphenyl)pyrazolo [1,5-a]pyrimidine-2-carboxamide] showed an EC50 of no less than 2 µM.
For `COc1ccc(-c2ccnc3cc(C(=O)N4CCN(C(=O)Nc5ccccc5)[C@@H](C)C4)nn23)cc1OC` [Compound 354, (S)-4-(7-(3,4-dimethoxy-phenyl)pyrazolo[1,5-a]pyrimidine-2-carbonyl)-2-methyl-N-phenylpiperazine-1-carboxamide], the EC50 was less than 0.2 µM.
For `COc1ccc(-c2ccnc3cc(C(=O)N4CCN(C(=O)COC(C)=O)CC4)nn23)cc1OC` [Compound 83, 2-(4-(7-(3,4-dimethoxyphenyl)pyrazolo[1,5-a]pyrimidine-2-carbonyl)piperazin-1-yl)-2-oxoethyl acetate], the EC50 was no less than 2 µM.
`COc1ccc(-c2ccnc3cc(C(=O)Nc4ccc(N5CCOCC5)cn4)nn23)cc1[N+](=O)[O-]` [Compound 294, 7-(4-methoxy-3-nitrophenyl)-N-(5-morpholinopyridin-2-yl) pyrazolo[1,5-a] pyrimidine-2-carboxamide] was tested, and the EC50 was no less than 2 µM.
Molecule `CCOc1ccc(NC(=O)c2cc3nccc(-c4cccc(OC)c4)n3n2)cc1` [Compound 24, N-(4-ethoxyphenyl)-7-(3-methoxyphenyl)pyrazolo [1,5-a]pyrimidine-2-carboxamide] has an EC50 of no less than 2 µM.
Molecule `COc1ccc(-c2ccnc3cc(C(=O)Nc4cc(C(F)(F)F)cc(C(F)(F)F)c4)nn23)cc1OC` [Compound 291, N-(3,5-bis(trifluoromethyl)phenyl)-7-(3,4-dimethoxyphenyl)pyrazolo [1,5-a]pyrimidine-2-carboxamide] has an EC50 of no less than 2 µM.
For `COc1ccc(-c2ccnc3cc(C(=O)N4CCN(Cc5ccccc5)[C@@H](C)C4)nn23)cc1OC` [Compound 206, (S)-(4-benzyl-3-methylpiperazin-1-yl) (7-(3,4-dimethoxyphenyl)pyrazolo [1,5-a]pyrimidin-2-yl)methanone], the EC50 was 0.2 to 2 µM.
With `COc1ccc(-c2ccnc3cc(C(=O)Nc4ccc(C(=O)NCCN(C(C)C)C(C)C)cc4)nn23)cc1OC` [Compound 120, N-(4-((2-(diisopropylamino)ethyl)carbamoyl)phenyl)-7-(3,4-dimethoxyphenyl) pyrazolo[1,5-a]pyrimidine-2-carboxamide] the EC50 was less than 0.2 µM.
`COc1ccc(-c2ccnc3cc(C(=O)N4CCNC(=O)C4)nn23)cc1OC` [Compound 180, 4-(7-(3,4-dimethoxyphenyl)pyrazolo[1,5-a]pyrimidine-2-carbonyl) piperazin-2-one] showed an EC50 of no less than 2 µM.
For `COc1ccc(-c2ccnc3cc(C(=O)N4CCc5ccc(C(=O)N6CCOCC6)cc54)nn23)cc1OC` [Compound 253, (7-(3,4-dimethoxyphenyl)pyrazolo[1,5-a]pyrimidin-2-yl)(6-(morpholine-4-carbonyl)indolin-1-yl) methanone], the EC50 was 0.2 to 2 µM.
`COc1ccc(-c2ccnc3cc(C(=O)Nc4ccc(C(=O)NCCN5CCCCC5)cc4)nn23)cc1OC` [Compound 119, 7-(3,4-dimethoxyphenyl)-N-(4-((2-(piperidin-1-yl)ethyl)carbamoyl)phenyl) pyrazolo[1,5-a]pyrimidine-2-carboxamide] gave an EC50 of 0.2 to 2 µM.
With `COc1ccc(-c2ccnc3cc(C(=O)N4CCN(C(=O)c5ccoc5)[C@@H](C)C4)nn23)cc1OC` [Compound 370, (S)-(7-(3,4-dimethoxyphenyl)pyrazolo[1,5-a]pyrimidin-2-yl)(4-(furan-3-carbonyl)-3-methylpiperazin-1-yl)methanone] the EC50 was less than 0.2 µM.
With `COc1ccc(-c2ccnc3cc(C(=O)N4C[C@@H](C)N[C@@H](C)C4)nn23)cc1OC` [Compound 358, (7-(3,4-dimethoxyphenyl)pyrazolo[1,5-a]pyrimidin-2-yl) ((3R,5S)-3,5-dimethylpiperazin-1-yl) methanone] the EC50 was 0.2 to 2 µM.
